Columns and labels:
Type in all cases: biochemical
bovine FX = experiment: Detecting plasma FIX activity by detecting FXa activity using an immunoassay (ECL); settings: diluted reference plasma
Method: A FIX activity calibrator curve was set up in a 96-well U bottom microtiter plate, which was equilibrated to 37° C. in an incubator. All coagulating factor reagents were from Haematologic Technologies, Inc. ((HTI), Essex Junction, Vt.), unless specifically noted. To 50 μL of a factor reagent containing 1.6 nM bovine FXIa (Cat: HCX1A-0160), 0.0681 nM bovine α-thrombin (Cat: BCT-1020), 24.5 nM bovine FX (BCX-1050), […] FVIII (Cat: PRO-318, PROSPEC, Rehovot, Israel), 100 μM phosphorliposome (80% phosphatidylcholine and 20% phosphatidylserine) and 0.75 mM Gly-Pro-Arg-Pro amide (Cat: GPRP-NH2. Sigma, St. Louis; SEQ ID NO:32), 25 μL of a diluted reference plasma (HEMOSIL™ Calibration Plasma, Cat: 0020003700, Diapharma Group Inc., Columbus, Ohio) containing 24.4, 8.13, 2.71, 0.904, 0.301, 0.100 and 0.0335 mU/mL of FIX in the assay buffer (Example 4) were added, mixed and incubated for exactly 10 minutes in a hot plate set at 37° C. After the incubation, to the 75 μL of assay mixture, 50 μL of a master mix of FXa detection reagent (Example 4), containing 200 μg/mL of M280-SA beads, 600 ng/mL of a peptide (peptide sequence III), 1000 ng/mL of TAG Plus anti-FLAG® M1 antibody (Example 2), and 30 μg/mL I-2581 (synthetic thrombin inhibitor, cat: 82110810, DiaPharma Group Inc. West Chester, Ohio 45069) in assay buffer (Example 4) was added and incubated for a final 20 minutes at 37° C. After the incubation, the beads were washed once in 150 μL of a PBS-based buffer solution (Example 3) and were resuspended in 150 μL of the same buffer before beads were read in a M1MR analyzer (BioVeris).

FXa = experiment: Detecting FXa activity by detection of a neoepitope, competitive immunoassay format (ECL); settings: for % Signal Decrease / Mean Signal: 15 minutes at 37° C.
FXa, sequence (P00742 41-179 limits assumed): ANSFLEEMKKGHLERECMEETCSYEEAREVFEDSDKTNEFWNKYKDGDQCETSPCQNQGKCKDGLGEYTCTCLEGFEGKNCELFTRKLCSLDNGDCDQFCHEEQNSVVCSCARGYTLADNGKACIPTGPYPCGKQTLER
FXa, sequence (P00742 235-488 limits assumed): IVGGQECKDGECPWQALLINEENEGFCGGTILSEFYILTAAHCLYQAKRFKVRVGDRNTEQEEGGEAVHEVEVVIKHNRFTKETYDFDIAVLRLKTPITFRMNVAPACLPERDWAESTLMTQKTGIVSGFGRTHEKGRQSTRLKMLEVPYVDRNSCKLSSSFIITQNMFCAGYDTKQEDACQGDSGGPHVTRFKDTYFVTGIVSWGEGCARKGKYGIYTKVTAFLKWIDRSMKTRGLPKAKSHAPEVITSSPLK
Description: Another method for detecting FXa activity uses a competitive immunoassay format. For example, peptide sequence VI, below, comprises a FXa recognition site (-IEGR-) (SEQ ID NO:1) at its N-terminus and the peptide sequence IV-amide (DYKDDDDKGS-amide) (SEQ ID NO:4) at its C-terminus. The FXa cleavage of the peptide bond after the arginine residue of -IEGR- (SEQ ID NO:1) sequence produces a neoepitope (SEQ ID NO:4), which can be measured with a TAG Plus-conjugated peptide (sequence VII) and a capture antibody in a competitive immunoassay format.
A FXa activity calibrator curve was set up in a 96-well U bottom microtiter plate containing 100 μL of a 3-fold serial dilution of FXa at 500, 167, 55.6, 18.5, 6.17, 2.06 and 0.686 ng/mL in the assay buffer (Example 4) and 50 μL of a master mix of FXa detection reagent containing 200 μg/mL of M280-SA beads prebound with biotinylated capture antibody (5.0 μg antibody per 1.0 mg of beads) (anti-FLAG® MD, 200 μg/mL of the NH2-IEGRDYKDDDDKGS-amide (Peptide sequence VI; SEQ ID NO:5) and 100 ng/mL of NH2-DYKDDDDKGS-TAG Plus (Peptide sequence VII; SEQ ID NO:4) in the same assay buffer. The plate was incubated on a hot plate (Example 4) at 37° C. for 15 minutes. After the incubation, the beads were washed once in 150 μL of the PBS-based buffer solution (Example 3) and were resuspended in 150 μL of the PBS-based buffer and read in a M1MR analyzer (BioVeris). FXa activities were detectable at 1.0 ng/mL or lower concentrations which produced about a 10% decrease of the background signals (the sample without FXa).

bovine factor Xa = experiment: Detecting heparin activity with an ECL-based FXa activity immunoassay (with human antithrombin)
bovine factor Xa, sequence (P01008 33-464): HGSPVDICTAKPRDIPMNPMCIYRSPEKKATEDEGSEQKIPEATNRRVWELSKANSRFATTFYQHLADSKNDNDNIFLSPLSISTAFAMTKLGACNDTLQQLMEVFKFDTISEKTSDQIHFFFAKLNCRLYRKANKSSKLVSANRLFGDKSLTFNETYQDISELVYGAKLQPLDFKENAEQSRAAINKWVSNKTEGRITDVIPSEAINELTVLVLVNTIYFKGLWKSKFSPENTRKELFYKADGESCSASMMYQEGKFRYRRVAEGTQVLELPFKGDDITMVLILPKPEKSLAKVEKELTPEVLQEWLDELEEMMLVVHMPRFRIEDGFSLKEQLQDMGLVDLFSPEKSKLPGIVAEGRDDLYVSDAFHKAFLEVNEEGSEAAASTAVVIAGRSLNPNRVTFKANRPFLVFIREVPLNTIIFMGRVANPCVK
Method: A heparin activity calibrator curve was set up in a 96-well U bottom microtiter plate, which was equilibrated to 37° C. in an incubator. To each well, 25 μL of 100, 50, 25, 12.5, 6.25 and 3.13 mIU/mL heparin prepared from a heparin sodium Salt (Cat: H4784-2500MG, Sigma, St. Louis) and 25 μL of 1.0 IU/mL human antithrombin (from kit of BIOPHEN Heparin Anti-Xa, Ref: 221010, Aniara Diagnostica LLC, Columbus, Ohio) were added and incubated for 2 minutes at 37° C. Then to the mixture, 25 μL of 8.0 μg/mL bovine factor Xa (from kit of BIOPHEN Heparin Anti-Xa, Ref: 221010, Aniara Diagnostica LLC, Columbus, Ohio) was added, followed immediately with 25 μL of a master mix of FXa detection reagent containing 400 μg/mL of M280-SA beads, 1.2 μg/mL of a peptide (peptide sequence V), 2.0 μg/mL of TAG Plus anti-FLAG® M1 antibody (Example 2) and 25 mM CaCl2. The subsequent mixture was incubated for a final 20 minutes at 37° C. After the incubation, the beads were washed once in 150 μL of the PBS-based buffer solution (Example 3) and were resuspended in 150 μL of the same buffer before beads were read in a M1MR Analyzer (BioVeris).

Substance: FIX: FIX in diluted reference plasma (HEMOSIL Calibration Plasma)
- Mean Signal (bovine FX; FIX 0.0335 mU/mL): 3665
- Signal/Background (bovine FX; FIX 0.0335 mU/mL): 1.1
- Mean Signal (bovine FX; FIX 0.100 mU/mL): 4050
- Signal/Background (bovine FX; FIX 0.100 mU/mL): 1.2
- Mean Signal (bovine FX; FIX 0.301 mU/mL): 5626
- Signal/Background (bovine FX; FIX 0.301 mU/mL): 1.6
- Mean Signal (bovine FX; FIX 0.904 mU/mL): 8707
- Signal/Background (bovine FX; FIX 0.904 mU/mL): 2.5
- Mean Signal (bovine FX; FIX 2.71 mU/mL): 16884
- Signal/Background (bovine FX; FIX 2.71 mU/mL): 4.9
- Mean Signal (bovine FX; FIX 8.13 mU/mL): 30879
- Signal/Background (bovine FX; FIX 8.13 mU/mL): 9.0
- Mean Signal (bovine FX; FIX 24.4 mU/mL): 40234
- Signal/Background (bovine FX; FIX 24.4 mU/mL): 11.7

Substance: NH2-IEGRDYKDDDDKGS-amide (H-IEGRDYKDDDDKGS-NH2) [Peptide sequence VI]
- decrease of the background signals at the detectable FXa concentration (FXa; FXa 1.0 ng/mL or lower, background = sample without FXa): ~10%
- % Signal Decrease (FXa; Xa 0.686 ng/mL): −8.5%
- Mean Signal (FXa; Xa 0.686 ng/mL): 84026
- % Signal Decrease (FXa; Xa 2.06 ng/mL): −22%
- Mean Signal (FXa; Xa 2.06 ng/mL): 71945
- % Signal Decrease (FXa; Xa 6.17 ng/mL): −42%
- Mean Signal (FXa; Xa 6.17 ng/mL): 52963
- % Signal Decrease (FXa; Xa 18.5 ng/mL): −60%
- Mean Signal (FXa; Xa 18.5 ng/mL): 36383
- % Signal Decrease (FXa; Xa 55.6 ng/mL): −75%
- Mean Signal (FXa; Xa 55.6 ng/mL): 22509
- % Signal Decrease (FXa; Xa 167 ng/mL): −84%
- Mean Signal (FXa; Xa 167 ng/mL): 14300
- % Signal Decrease (FXa; Xa 500 ng/mL): −89%
- Mean Signal (FXa; Xa 500 ng/mL): 9830

Substance: heparin sodium Salt
- % Signal Decrease (bovine factor Xa; Heparin 3.13 mIU/mL): −19%
- Mean Signal (bovine factor Xa; Heparin 3.13 mIU/mL): 81999
- % Signal Decrease (bovine factor Xa; Heparin 6.25 mIU/mL): −38%
- Mean Signal (bovine factor Xa; Heparin 6.25 mIU/mL): 62502
- % Signal Decrease (bovine factor Xa; Heparin 12.5 mIU/mL): −60%
- Mean Signal (bovine factor Xa; Heparin 12.5 mIU/mL): 40868
- % Signal Decrease (bovine factor Xa; Heparin 25.0 mIU/mL): −81%
- Mean Signal (bovine factor Xa; Heparin 25.0 mIU/mL): 19648
- % Signal Decrease (bovine factor Xa; Heparin 50.0 mIU/mL): −93%
- Mean Signal (bovine factor Xa; Heparin 50.0 mIU/mL): 7203
- % Signal Decrease (bovine factor Xa; Heparin 100 mIU/mL): −97%
- Mean Signal (bovine factor Xa; Heparin 100 mIU/mL): 3322
